Measured values from BigSolDB 2.1.
Values belong to the compound of their own block, whether it stands above or below them.

SMILES: CC(C)(C)C(=O)OCOP(=O)(COCCn1cnc2c(N)ncnc21)OCOC(=O)C(C)(C)C
solubility (mole fraction) (in acetone, 298.15 K): 0.0662
solubility (mole fraction) (in dichloromethane, 298.15 K): 0.175
solubility (mole fraction) (in diisopropyl ether, 298.15 K): 3.71e-05
solubility (mole fraction) (in ethanol, 298.15 K): 0.0341
solubility (mole fraction) (in ethyl acetate, 298.15 K): 0.0263
solubility (mole fraction) (in isopropanol, 298.15 K): 0.0252

SMILES: O=C(O)CNCP(=O)(O)O
solubility (mole fraction) (in water, 293.67 K): 0.00112
solubility (mole fraction) (in water, 302.65 K): 0.0014
solubility (mole fraction) (in water, 311.95 K): 0.00174
solubility (mole fraction) (in water, 317.15 K): 0.00202
solubility (mole fraction) (in water, 322.15 K): 0.00226
solubility (mole fraction) (in water, 327 K): 0.0025
solubility (mole fraction) (in water, 332.35 K): 0.00285

SMILES: C[C@@H]1CC[C@H]2[C@@H](C)C(=O)O[C@@H]3O[C@@]4(C)CC[C@@H]1[C@]32OO4
solubility (mole fraction) (in ethanol, 278.2 K): 0.000998
solubility (mole fraction) (in ethanol, 286.2 K): 0.00181
solubility (mole fraction) (in ethanol, 303.2 K): 0.00297
solubility (mole fraction) (in ethanol, 313.2 K): 0.00457
solubility (mole fraction) (in ethanol, 323.2 K): 0.00801
solubility (mole fraction) (in ethanol, 343.2 K): 0.0159

SMILES: O=c1cc(Cl)[nH]c(=O)[nH]1
solubility (mole fraction) (in water, 298.15 K): 0.000603

SMILES: O=c1[nH]cc(Cl)c(=O)[nH]1
solubility (mole fraction) (in water, 298.15 K): 0.000308

More lines, now with the values ahead:

solubility (mole fraction) (in 1,4-dioxane, 298.15 K): 0.00331
solubility (mole fraction) (in PEG-400, 298.15 K): 0.0262
solubility (mole fraction) (in ethanol, 298.15 K): 0.00436
solubility (mole fraction) (in methanol, 298.15 K): 0.00425
solubility (mole fraction) (in propylene glycol, 298.15 K): 0.00914
solubility (mole fraction) (in water, 298.15 K): 0.000735
SMILES: COc1ccccc1OCC(O)COC(N)=O (stereo not given)

solubility (mole fraction) (in ethanol, 273.15 K): 0.0219
solubility (mole fraction) (in ethanol, 278.15 K): 0.0281
solubility (mole fraction) (in ethanol, 283.15 K): 0.0366
solubility (mole fraction) (in ethanol, 288.15 K): 0.0488
solubility (mole fraction) (in ethanol, 293.15 K): 0.0658
solubility (mole fraction) (in ethanol, 298.15 K): 0.0933
solubility (mole fraction) (in ethanol, 303.15 K): 0.142
SMILES: Clc1ccc(OCCCBr)cc1

solubility (mole fraction) (in 1,4-dioxane, 298.15 K): 0.0669
solubility (mole fraction) (in acetonitrile, 298.15 K): 0.0473
solubility (mole fraction) (in water, 298.15 K): 1e-06
SMILES: O=C1C[C@@H](c2ccc(O)cc2)Oc2cc(O)cc(O)c21

solubility (mole fraction) (in cyclohexane, 295.45 K): 0.0146
solubility (mole fraction) (in cyclohexane, 304.95 K): 0.0279
solubility (mole fraction) (in cyclohexane, 316.65 K): 0.0515
solubility (mole fraction) (in cyclohexane, 319.4 K): 0.0615
solubility (mole fraction) (in cyclohexane, 325.2 K): 0.0885
solubility (mole fraction) (in cyclohexane, 329.35 K): 0.106
solubility (mole fraction) (in cyclohexane, 333.45 K): 0.138
solubility (mole fraction) (in cyclohexane, 338.15 K): 0.185
SMILES: Cc1ccccc1C(=O)O
